Ends that are not written are not given here.
Experiments:
[1] = system: T cell differentiation and function; settings: several in vitro and in vivo assay systems; cited from earlier work
[2] = system: Candida albicans; assay: Growth of Candida albicans in C3 H/HeJ mice treated daily i.p. with thymic derivatives; assay type: in vivo; settings: for Protection in comparison with control mice: daily i.p. graded doses beginning two days before i.v. challenge with 4×10^4 cells of C. albicans; for C. albicans cell count: average number of organisms in left kidneys of nine mice, days 7, 14 and 21 after infection; for Most active (optimum) daily dose: i.p., resistance to infection with C. albicans; for Potency relative to fraction 5 in ability to induce resistance to infection with C. albicans: ratio of optimum doses
Description: The biological activity of thymosin alpha1 can be determined by utilizing in vivo assays known in the art. Thus, for example, inbred strains of mice are known to vary in their susceptability to infection with C. albicans. Thus, mice of such strains as C3 H/HeJ or CBA/CaJ are highly susceptible to infection, whereas mice of such strains as C57 Bl/10SNJ or C57 Bl/KsJ were highly resistant to challenge. Since resistance to infection with C. albicans is associated with cell-mediated processes, and therefore with T-lymphocytes, thymic hormones should have an effect on the host response.
Thymosin fraction5, alpha1, or alpha11 was injected daily i.p. in graded doses into three different groups of mice, beginning two days before intravenous challenge with 4×10^4 cells of C. albicans.
Mice were treated daily with the indicated doses of thymosin fraction 5,
thymosin α1 or thymosin α11 and challenged with 4
× 10^4 cells of C. albicans two days after the start of
*Three mice from each set were sacrificed on days 7, 14 and 21 after
infection and the values represent the average number of organisms in the
left kidneys of the nine mice in each set.

[3] = system: T cell differentiation and function; assay: in vitro and in vivo assay systems designed to measure T cell differentiation and function

Substance	Activity relative to fraction 5 [1]	Protection in comparison with control mice [2]	C. albicans cell count ([2]; dose 80 ng/mouse daily i.p.)	C. albicans cell count ([2]; dose 160 ng/mouse daily i.p.)	C. albicans cell count ([2]; dose 320 ng/mouse daily i.p.)	C. albicans cell count ([2]; dose 640 ng/mouse daily i.p.)	Most active (optimum) daily dose [2]	Potency relative to fraction 5 in ability to induce resistance to infection with C. albicans [2]	Biological activity relative to thymosin alpha1 [3]
Thymosin α1: first active peptide isolated and characterized from thymosin fraction 5 (Ac-SDAAVDTSSEITTKDLKEKKEVVEEAEN; ends and bridges not checked; UniProt P06454 2-29, looked up)	one or more orders of magnitude more active than fraction 5	provided protection	5870	190	780	1410	160-320 ng per mouse	about 30 times	
Ac-SDAAVDTSSEITTKDLKEKKEVVEEAENGREAPAN [Thymosin α11]		provided protection	4200	510	320	1260	160-320 ng per mouse	about 30 times	same quantitative and qualitative biological activity
